Experimental data published in US4076821A (priority 1976, dated 1978).

Legend:
[1] = animal or person; format: in vivo; details: Rattus norvegicus, po, read-out: ED50, anti-apomorphine effect
[2] = in vivo; details: mouse, po

O=C(CCCN1CCC(O)(c2ccc(Cl)cc2)CC1)c1ccc(F)cc1 [Haloperidol, 1-[3-(p-fluorobenzoyl)propyl]-4-(p-chlorophenyl)-4-piperidinol, reference compound]
ED50 [1]: 0.5 mg/kg
LD50 [2]: > 100 mg/kg

O=c1[nH]c2ccccc2n1C1CCN(CCCC(c2ccc(F)cc2)c2ccc(F)cc2)CC1 [Pimozide, 1-[1-(4,4-bis(p-fluorophenyl)butyl)-4-piperidyl]-2-benzimidazolinone, reference compound]
ED50 [1]: 0.25 mg/kg
LD50 [2]: > 1000 mg/kg

Cl.OC1(c2ccc(Cl)c(C(F)(F)F)c2)CCN(C2CCC(c3ccc(F)cc3)(c3ccc(F)cc3)CC2)CC1 [Test Compound A, 1-[4,4-bis(p-fluorophenyl)cyclohexyl]-4-(4-chloro-3-trifluoromethylphenyl)-4-piperidinol hydrochloride]
ED50 [1]: 2.46 mg/kg
LD50 [2]: ≥ 464 mg/kg

O=C1NCN(c2ccc(F)cc2)C12CCN(C1CCC(c3ccc(F)cc3)(c3ccc(F)cc3)CC1)CC2 [Test Compound B, 8-[4,4-bis(p-fluorophenyl)cyclohexyl]-1-(p-fluorophenyl)-1,3,8-triazaspiro[4.5]decan-4-one]
ED50 [1]: 0.1 mg/kg

O=C1NCN(c2ccc(Cl)cc2)C12CCN(C1CCC(c3ccc(F)cc3)(c3ccc(F)cc3)CC1)CC2 [Test Compound E, 8-[4,4-bis(p-fluorophenyl)cyclohexyl]-1-(p-chlorophenyl)-1,3,8-triazaspiro[4.5]decan-4-one]
ED50 [1]: 0.28 mg/kg
LD50 [2]: ≥ 464 mg/kg
